Several values for one entry are separate records, joined by “and”; a condition that tells them apart may be missing. Equal entries are not always repeated. Structures can show the parent of a compound that is named as a salt. Marks after values point to notes of the source that are not given here.
Assays:
[1] = test system: MTLE mice; assay: MTLE mice acute screen evaluation; assay type: in vivo
[2] = test system: NMDA; assay: Electrophysiology studies (Test 17); assay type: cell-based; details: 100 uM, holding potential -70 mV
From the text: Solvent Code: DMSO Solvent Prep: 257.759
Test Add CompoundConc.(uM) # Cells % Control +/- SEM
(§1) (1 picture or pasted object on this page, not shown here)

[3] = test system: CYP3A1 (pregnane X receptor); assay: In vitro metabolic gene induction studies; assay type: cell-based, rat
Method: Test 28 - In Vitro Metabolic Gene lnduction Studies
:.!,iIir:- i- :: ar!-'{}-: i
Solvent Code: DMSO Solvent Prep: Unit: uM
(§2) Cell line source: Puracyp Molecular 257.7590
Date Staded: 05+eb-20'10 Date Completed: 15-Feb-2010 Weight:
Reference: Lamb bool#8 pg. 77 […]
lsoform Code: CYP3A1 Cell line: RPXR lnduc60n mechanism:pregnane X receptor
(§3) Concentration lnduction Cell […]
Note: Box checked if data is significantty different.
(§4) Max induction 2 fold @ 200uM
(calculated): signlficant decrease in vlabllity at this conc€nbaffon in vitro.
as §1

[4] = test system: P-glycoprotein (pregnane X receptor); assay: In vitro metabolic gene induction studies; assay type: cell-based, human; details: up to 500 uM
From the text: (§5) Test 28 - In Vitro Metabolic Gene Induction Studies
Solventcode: DMSO Solvent Prep: Unit: uM
as §2
Date Started: O5+eb-2O10 Date Completed: 15+eb-201O Weight:
Reference: Lamb book#8 pg.77 […]
lsoform Code: P{lycoprotein cell line: MDRI.C
Induc0on mechanism: pregnane X receptor
as §3
Note: 8ox ifdata is different.
. {calculated): slight Induotion (under tlffo fold) in vitro.
The highest response was less than that seen with 1ouM rifampicin.
as §1

[5] = test system: CYP3A4 (pregnane X receptor); assay: In vitro metabolic gene induction studies; assay type: cell-based, human
From the text: Solvent Code: DMSO solvent Prep: Unit: uM
lsofoIm Coder CYP3A4 Cell line: DP)e
Induction mechanism: pregnane X receptor

[6] = test system: CYP1A2 (aryl hydrocarbon receptor); assay: In vitro metabolic gene induction studies; assay type: cell-based, human
Method: Anticonvulsant Screening prog ram
as §5
SolventCode: DMSO Solvent Prep: Unit: uM
as §2
DateStarted: O5+eb-2O1O Date Completed: 15+eb-2010 Weig ht:
Reference: Lamb boolc#t! p9.77
lsoform Code: CyplAz Cell line: lAzDRE
Inducffon mechanism: aryl hydrocarbon receptor
Concentration Induction Cell
Fold +/- S.D Viability +/- S.D
0 1 +t- o.cs n 1n +L 2.2o n
as §4
. '^ (calculated): slgnificant decrease in viability at this concentation in vitso.
as §1

[7] = test system: mice; assay: Capsaicin test; assay type: in vivo
Method: Neurogenic pain—capsaicin test. In this test compound dissolved in saline was tested at doses 5, 10, and 30 mg/kg. Compound was administered ip and 30 min later 1.6 μg of capsaicin (Sigma-Aldrich, Germany) dissolved in 20 μL of a mixture containing 0.9% saline and ethanol (5% of the final volume) was injected intraplantarly in the ventral surface of the right-hind paw of each mouse. The animals were observed individually for 5 min following capsaicin injection. In all experimental groups, the amount of time spent on licking, biting, or lifting the injected paw was recorded with a chronometer and was considered as an indicator of nociception.

[8] = test system: mice; assay: Tail immersion test (local anesthetic activity); assay type: in vivo
Method: The tail immersion test in mice. […] The method was performed by subcutaneous (sc) injection of the tested substance dissolved in saline, at a concentration range 0.06–2%, in a constant volume of 0.2 mL about 1 cm from the root of the mouse tail. Fifteen minutes later, the 3-cm distal part of the tail was immersed into temperature-controlled water (50 ± 0.5 °C). The reaction time (latency until the tail is pulled away) was measured by the means of a chronometer. In this assay the cut-off was 20 s [29].

[9] = test system: guinea pigs; assay: Corneal anesthesia; assay type: in vivo
Method: A. Corneal anesthesia. […] The corneal reflex was examined by irritation of right eye conjunctiva (studied eye) and a left eye conjunctiva (control eye) by horsehair. The strength of local anesthetic activity was determined from the moment of solution instillation to the moment of reflex return. The presence or lack of corneal reflex were assessed. The eye conjunctiva irritation was done 6 times (every 5 s) with the interval of 5 min during the first 30 min [31].

[10] = pKa by potentiometric titration; assay type: physicochemical; details: aqueous solution titrated with 0.051 M NaOH; 37 °C
Method: pKa. The assay was performed by potentiometric titration, at 37 °C. The method is based on the additional portions of 0.051 M NaOH solution to the aqueous solution of test compounds, on electromagnetic stirrer with contact thermometer (Heidolph MR Hei-Standard). NaOH solution was added in 500 μL portions using Eppendorf automatic pipette. Waiting a few seconds after each titrant addition allowed the solution temperature to stabilize. After this time pH was recorded with the use of pH-meter CP-551 (Elmetron) for precise determination of pH in laboratory conditions (pH 0–14; pH accuracy ± 0.01) with combined chloride electrode OSH-10-10 (enables measurements in the temperature range 0–60 °C and pH range 1–12). Then, next portion of titrant was added. Titration was completed after 15 mL of NaOH solution was added. Threefold repetitions of titration were applied. pKa of the tested compound was calculated on the basis of the pH values obtained.

[11] = target: T1, hNav1.2 sodium channel (Homo sapiens, UniProt Q99250); assay: Nav channel electrophysiology (IonWorks Quattro); assay type: cell-based
T1 construct: host or cells: CHO cells

[12] = target: T2, hNav1.8/beta3 sodium channel (Homo sapiens, UniProt Q9Y5Y9); assay: Nav channel electrophysiology (IonWorks Quattro); assay type: cell-based
T2 construct: host or cells: CHO cells

[13] = Approximate solubility tests; assay type: physicochemical; details: pH 9.9 borate buffer
Method: Borate buffer pH = 9.9 was selected as one of standard buffers at this pH range. […] Initially, three organic modifiers were considered: ethanol, dimethyl sulfoxide (DMSO) and 1,4-dioxane. […] Finally, dioxane was selected due to its higher boiling point, which reduced the risk of evaporation during a prolonged experiment. During the experiment, three degradation products were observed (tR = 13 min, tR = 15 min and tR = 17 min).

T1 sequence (Q99250 whole entry): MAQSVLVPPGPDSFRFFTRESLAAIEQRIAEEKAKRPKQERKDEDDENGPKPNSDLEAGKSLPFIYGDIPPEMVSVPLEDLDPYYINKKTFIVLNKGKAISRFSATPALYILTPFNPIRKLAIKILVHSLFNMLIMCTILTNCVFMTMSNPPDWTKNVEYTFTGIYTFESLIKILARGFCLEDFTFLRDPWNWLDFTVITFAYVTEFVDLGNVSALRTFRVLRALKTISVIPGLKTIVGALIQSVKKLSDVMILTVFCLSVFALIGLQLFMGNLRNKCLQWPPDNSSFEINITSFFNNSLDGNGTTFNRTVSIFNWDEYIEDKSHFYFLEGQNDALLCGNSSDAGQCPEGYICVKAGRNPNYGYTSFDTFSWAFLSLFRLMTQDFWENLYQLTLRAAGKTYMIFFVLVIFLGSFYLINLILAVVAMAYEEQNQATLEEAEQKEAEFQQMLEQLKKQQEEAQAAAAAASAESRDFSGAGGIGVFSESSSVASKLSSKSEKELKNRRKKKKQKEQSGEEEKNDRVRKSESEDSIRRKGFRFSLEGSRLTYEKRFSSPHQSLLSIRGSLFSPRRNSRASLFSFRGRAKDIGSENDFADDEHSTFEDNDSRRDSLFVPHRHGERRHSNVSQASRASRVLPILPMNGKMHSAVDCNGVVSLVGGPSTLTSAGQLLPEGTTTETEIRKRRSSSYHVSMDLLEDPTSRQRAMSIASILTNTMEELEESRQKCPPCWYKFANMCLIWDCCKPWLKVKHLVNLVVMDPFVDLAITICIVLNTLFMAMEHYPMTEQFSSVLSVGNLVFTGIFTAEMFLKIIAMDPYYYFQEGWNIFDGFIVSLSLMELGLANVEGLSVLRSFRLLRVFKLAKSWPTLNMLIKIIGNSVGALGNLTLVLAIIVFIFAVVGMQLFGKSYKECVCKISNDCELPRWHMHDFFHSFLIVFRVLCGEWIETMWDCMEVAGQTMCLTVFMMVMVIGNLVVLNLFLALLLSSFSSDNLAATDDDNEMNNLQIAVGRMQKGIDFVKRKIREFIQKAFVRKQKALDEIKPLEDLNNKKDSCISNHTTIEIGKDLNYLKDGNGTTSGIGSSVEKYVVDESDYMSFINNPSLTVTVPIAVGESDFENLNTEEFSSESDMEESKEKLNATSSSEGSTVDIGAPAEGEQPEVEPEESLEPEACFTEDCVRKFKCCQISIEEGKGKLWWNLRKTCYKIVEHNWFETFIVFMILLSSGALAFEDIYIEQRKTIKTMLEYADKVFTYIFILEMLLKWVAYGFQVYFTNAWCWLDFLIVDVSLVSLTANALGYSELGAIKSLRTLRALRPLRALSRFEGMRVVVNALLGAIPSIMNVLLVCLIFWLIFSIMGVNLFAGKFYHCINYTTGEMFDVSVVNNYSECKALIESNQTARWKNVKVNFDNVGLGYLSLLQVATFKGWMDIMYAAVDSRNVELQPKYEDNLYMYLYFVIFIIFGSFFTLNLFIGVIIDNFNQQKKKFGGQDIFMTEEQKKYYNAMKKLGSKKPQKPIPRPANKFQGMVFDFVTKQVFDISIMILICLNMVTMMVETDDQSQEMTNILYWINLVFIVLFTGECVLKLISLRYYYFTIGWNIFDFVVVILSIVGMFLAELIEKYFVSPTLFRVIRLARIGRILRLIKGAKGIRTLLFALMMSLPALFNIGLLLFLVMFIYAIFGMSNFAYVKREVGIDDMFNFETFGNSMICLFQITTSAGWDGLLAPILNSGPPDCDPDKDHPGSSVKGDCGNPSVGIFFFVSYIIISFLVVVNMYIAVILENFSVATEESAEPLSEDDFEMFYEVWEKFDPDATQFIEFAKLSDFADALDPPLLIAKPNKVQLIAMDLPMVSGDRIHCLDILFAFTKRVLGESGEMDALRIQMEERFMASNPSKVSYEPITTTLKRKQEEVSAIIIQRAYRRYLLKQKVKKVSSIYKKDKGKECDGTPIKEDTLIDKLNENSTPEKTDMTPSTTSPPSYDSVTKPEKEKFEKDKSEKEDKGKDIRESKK
T2 sequence (Q9Y5Y9 whole entry): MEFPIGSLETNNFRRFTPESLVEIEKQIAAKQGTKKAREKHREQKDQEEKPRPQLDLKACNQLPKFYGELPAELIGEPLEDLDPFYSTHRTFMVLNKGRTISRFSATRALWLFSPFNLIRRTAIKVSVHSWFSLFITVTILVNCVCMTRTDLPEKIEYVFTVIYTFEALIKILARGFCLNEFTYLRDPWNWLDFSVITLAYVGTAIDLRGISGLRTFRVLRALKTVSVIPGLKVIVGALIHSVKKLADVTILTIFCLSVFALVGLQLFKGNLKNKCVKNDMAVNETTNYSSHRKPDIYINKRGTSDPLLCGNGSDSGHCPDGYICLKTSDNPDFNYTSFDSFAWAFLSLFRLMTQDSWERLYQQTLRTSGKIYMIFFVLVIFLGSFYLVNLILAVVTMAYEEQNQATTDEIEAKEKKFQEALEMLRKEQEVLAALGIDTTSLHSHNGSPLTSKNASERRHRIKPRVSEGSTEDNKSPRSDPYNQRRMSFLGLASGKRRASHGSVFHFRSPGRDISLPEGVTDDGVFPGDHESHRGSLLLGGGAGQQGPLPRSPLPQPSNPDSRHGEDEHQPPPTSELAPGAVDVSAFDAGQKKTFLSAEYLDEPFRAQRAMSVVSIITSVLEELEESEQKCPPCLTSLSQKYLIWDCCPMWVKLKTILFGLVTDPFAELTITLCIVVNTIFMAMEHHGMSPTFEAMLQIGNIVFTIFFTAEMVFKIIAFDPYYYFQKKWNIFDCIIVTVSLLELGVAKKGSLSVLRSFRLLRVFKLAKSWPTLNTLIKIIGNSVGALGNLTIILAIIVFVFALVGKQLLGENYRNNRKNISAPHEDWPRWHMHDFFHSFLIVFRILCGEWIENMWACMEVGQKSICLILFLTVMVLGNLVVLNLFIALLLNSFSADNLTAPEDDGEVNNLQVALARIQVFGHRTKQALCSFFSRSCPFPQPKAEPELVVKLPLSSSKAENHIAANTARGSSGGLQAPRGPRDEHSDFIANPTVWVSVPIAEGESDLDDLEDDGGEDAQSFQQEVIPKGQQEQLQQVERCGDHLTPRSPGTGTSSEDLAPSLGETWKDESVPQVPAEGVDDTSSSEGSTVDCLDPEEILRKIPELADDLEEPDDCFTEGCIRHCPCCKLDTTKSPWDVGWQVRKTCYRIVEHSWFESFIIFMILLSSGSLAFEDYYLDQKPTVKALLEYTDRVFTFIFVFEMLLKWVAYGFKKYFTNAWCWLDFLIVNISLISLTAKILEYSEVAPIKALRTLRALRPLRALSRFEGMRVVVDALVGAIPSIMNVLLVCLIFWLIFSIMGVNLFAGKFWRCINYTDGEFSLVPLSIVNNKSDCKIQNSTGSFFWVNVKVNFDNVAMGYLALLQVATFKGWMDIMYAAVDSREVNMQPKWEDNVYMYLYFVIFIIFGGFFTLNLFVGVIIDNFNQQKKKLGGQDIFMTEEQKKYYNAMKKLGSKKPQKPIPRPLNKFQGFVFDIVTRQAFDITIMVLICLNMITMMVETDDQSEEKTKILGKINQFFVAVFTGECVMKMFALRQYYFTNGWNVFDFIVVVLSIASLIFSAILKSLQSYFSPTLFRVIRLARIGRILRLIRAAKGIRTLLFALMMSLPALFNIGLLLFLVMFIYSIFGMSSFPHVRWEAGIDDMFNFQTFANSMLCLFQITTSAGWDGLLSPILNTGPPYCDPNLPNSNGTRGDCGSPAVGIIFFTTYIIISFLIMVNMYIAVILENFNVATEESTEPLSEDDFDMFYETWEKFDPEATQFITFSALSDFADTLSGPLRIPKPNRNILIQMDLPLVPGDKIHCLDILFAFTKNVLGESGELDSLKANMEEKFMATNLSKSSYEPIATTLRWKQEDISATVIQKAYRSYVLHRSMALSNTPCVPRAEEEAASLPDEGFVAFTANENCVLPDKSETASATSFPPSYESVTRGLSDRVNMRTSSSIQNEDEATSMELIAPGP
T2 sequence (Q9NY72 25-215 partner limits assumed): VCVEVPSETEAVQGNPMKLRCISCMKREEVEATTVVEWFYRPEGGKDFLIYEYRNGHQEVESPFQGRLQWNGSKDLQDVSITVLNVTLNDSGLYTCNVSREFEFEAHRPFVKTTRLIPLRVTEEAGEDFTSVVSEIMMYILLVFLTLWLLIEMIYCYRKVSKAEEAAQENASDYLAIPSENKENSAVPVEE

**Q.** For `CCC(CO)NCCOc1c(C)cccc1Cl` (stereo not drawn) [Compound 4, R,S-2-((2-(2-chloro-6-methylphenoxy)ethyl)amino)butan-1-ol], which “MTLE mice acute screen: % of baseline” value ([1]; at 30 mg/kg, recording period 5–25 min) is on record?
**A.** 80.8 ± 16.8 % of baseline

**Q.** What about the “MTLE mice acute screen TPE” value ([1]; mice, ip) of the same compound?
**A.** 0.25 h

**Q.** What about the “% Control +/- SEM” value [2] of the same compound?
**A.** 63%

**Q.** And the “Max induction (calculated)” value ([3]; @ 200uM)?
**A.** 2 fold

**Q.** What about the EC50 ([3]; RPXR cell line, read-out: EC50 (calculated)) of the same compound?
**A.** 74 µM

**Q.** What about the induction [4] of the same compound?
**A.** slight induction

**Q.** What about the “Max induction (calculated)” value ([5]; @ 200uM) of the same compound?
**A.** 12 fold

**Q.** What about the EC50 ([5]; read-out: EC50 (calculated)) of the same compound?
**A.** 100 µM

**Q.** And the EC50 ([6]; 1A2DRE cell line, read-out: EC50 (calculated))?
**A.** 37 µM

**Q.** What about the “Max induction (calculated)” value ([6]; @ 200uM) of the same compound?
**A.** 2 fold

**Q.** Which results are given for `CCC(CO)NCCOc1c(C)cccc1Cl` (stereo not drawn) [KM-408, R,S-2-((2-(2-chloro-6-methylphenoxy)ethyl)amino)butan-1-ol hydrochloride]?
**A.** reduction of nociceptive response ([7]; 5 mg/kg ip, not significant): 19%; licking response ([7]; 10 mg/kg ip): 42.7 ± 5.6 s; reduction of licking response ([7]; 10 mg/kg ip): 38%; licking response ([7]; 30 mg/kg ip): 27.7 ± 5.7 s; reduction of licking response ([7]; 30 mg/kg ip): 60%; ED50 ([7]; Mus musculus, mice, ip): 19 mg/kg; Reaction time to painful stimulus ([8]; 0.062%): 4.4 ± 1.0 s; Prolongation of the time reaction ([8]; 0.125%): 42.9%; Reaction time to painful stimulus ([8]; 0.125%): 5.0 ± 1.0 s; Prolongation of the time reaction ([8]; 0.5%): 166% and 165.7%; Reaction time to painful stimulus ([8]; 0.5%): 9.3 ± 0.9 s; Prolongation of the time reaction ([8]; 2.0%): 323% and 322.9%; Reaction time to painful stimulus ([8]; 2.0%): 14.8 ± 1.9 s; Reaction time to painful stimulus ([8]; […]): 7.4 ± 1.0 s; tail immersion test: active at ([8]; mice): 0.5%; Inhibition of pain reaction ([9]; 0.5%, 5 min): 94.4*** %; Inhibition of pain reaction ([9]; 0.5%, 30 min): 8.3%; Inhibition of pain reaction ([9]; […], 5 min): 80.5*** %; corneal anesthesia: active at ([9]; guinea pigs): 0.125%; pKa [10]: 9.5; IC50 ([11]; 10 Hz): 15.6 µM; IC50 ([11]; Inactivated state): < 10 µM; IC50 ([11]; Tonic block): 48.7 µM; IC50 ([12]; 10 Hz): 15.2 µM; IC50 ([12]; Inactivated state): < 10 µM; IC50 ([12]; Tonic block): 44.1 µM; solubility ([13]; 20% dioxane): dissolved fully; solubility ([13]; 20% ethanol): dissolved fully; solubility ([13]; DMSO above 30%): full solubility has not been achieved
